Molecules are shown by their SMILES. Read-outs that look alike come from different tables or passages of the source. Where a SMILES comes first, the peptide text is derived from it. [ ]: non-standard residue; d: D form. The star is where a group is joined. Pheψ(CH2S)LeuNH2 = CC(C)C[C@H](SC[C@H](Cc1ccccc1)N*)C(N)=O; pGlu = O=C1CC[C@@H](C(=O)O)N1

Experiment [1] deals with T1, bombesin/GRP receptor (Mus musculus, UniProt P21729).
T1 construct: Pancreata from mice were pooled and chopped at 350 µm with a tissue chopper; from tissue; host or cells: chopped mouse pancreas
As to the kind of experiment: Competition at the receptor for iodinated GRP (binding to murine pancreatic membranes). Further details: species or system mice. Here is the method:
The pancreata from one or more mice were pooled, minced, and homogenized in 50 mM HEPES (pH 7.4) containing 120 mM NaCl and 5 mM KCl at 4°C and centrifuged at 37,500 X g for 15 minutes. The pellet was resuspended in 50 mM HEPES (pH 7.4) containing 10 mM EDTA and 300 mM KCl and incubated for 30 minutes at 4°C. The suspension was centrifuged as above and the pellet was washed two times in 50 mM HEPES (pH 7.4) containing protease inhibitors (10 µM phenylmethylsulfonyl fluoride, 1 µM thiorphan, 40 µg/ml bacitracin, 10mM iodoacetimide and 4 µg/ml leupeptin), and again centrifuged. The tissue was then resuspended in incubation buffer (1ml per 4 mg pancreas) and incubated for 15 minutes at room temperature, then 250 µl was added to each assay tube to commence the assay. […] The assay was allowed to proceed to equilibrium for 90 minutes at room temperature. After this time, the contents of each tube was rapidly filtered over Whatman GF/B filters presoaked in 0.1% polyethyleneimine and the filters were rapidly washed three times with ice-cold 50 mM HEPES (pH 7.4). Filter-bound radioactivity was quantitated in a gamma counter. […] Affinity and maximal binding were calculated with Ligand (Biosoft, Cambridge, UK) (Figure 1 and Figure 2).
Binding was assayed in triplicate using 0.1 […] and the indicated concentrations of peptide. The abscissa (x-axis) logarithmically indicates the concentration of agonists or antagonist of the GRP receptor.

The target in experiment [2] is T1, bombesin/GRP receptor. Briefly: Phosphatidylinositol (PI) turnover in chopped murine pancreas, alone (agonism) or before GRP (antagonism). Particulars: for PI Turnover Antag.: ability to block GRP-stimulated PI turnover, pretreatment with 1 uM potential antagonist; for PI Turnover Antag. / PI Turnover Agonist: murine pancreas; for PI Turnover Agonist: ability to stimulate PI turnover. More on the design: key to PI Turnover Agonist / PI Turnover Antag.: "+" indicates activity; "-" indicates no activity. The format is cell-based, mice. Here is the method: Pancreata from mice were pooled and chopped at 350 µm with a tissue chopper. The chopped tissue was washed twice with Krebs-Hepes buffer, then incubated for 30 minutes in 37°C Krebs-Hepes buffer with fresh buffer after 15 minutes. The tissue was then incubated in this buffer containing 100-200 µCi of ³H-inositol at 37°C for 1 hour. The tissue was then washed twice and incubated for another 30 minutes in Krebs-Hepes buffer (containing 10 mM Li⁺) at 37°C with fresh buffer change after 15 minutes. Portions of the tissue mass (approximately 10 mg per assay tube) were then placed in Li⁺ buffer with protease inhibitors, (40 µg/ml bacitracin,4 µg/ml leupeptin, 4 µg/ml chymostatin, 20 µg/ml thiorphan), 0.1% BSA, and then 0.1-1000 nM peptide was added in 25 µl in a final volume of 250 µl. […] After 60 minutes at room temperature, the phosphatidylinositol turnover was terminated by the addition of 940 µl chloroform:methanol (1:2), followed by 310 µl chloroform, followed by 310 µl water. Each tube was then vortexed for 5 seconds and then centrifuged at 2500 x g for 8 minutes to separate the phases. 900 µl of the top (aqueous) phase was then mixed with 2.1 ml water and loaded onto a 0.5 ml Biorad AG-1X8 (formate) ion exchange column. 50 µl of the bottom phase (chloroform) was withdrawn from each tube and placed in a counting vial, dried, and counted in scintillation fluid. The material on the columns was washed in order with: 1) 10 ml of water 2) 5 ml of 5 mM disodium tetraborate/60 mM sodium formate 3) 10 ml of 1 M ammonium formate in 0.1 M formic acid. The final (third) wash was collected and one ml was mixed with 10 ml of Bio-Safe scintillant and counted. The ratio of these counts (total inositol phosphates) to the corresponding organic phase counts was then calculated for each sample. The ratios in the presence of test compound and/or standards were then compared to the ratios for control tubes (i.e., no stimulating agonist). Dose-response lines were constructed and the abilities of test compounds to stimulate or to inhibit GRP induced phosphatidylinositol turnover were determined by graphical analysis or with the aid of a computer program and are illustrated in Figures 3 and 4.
The abscissa (x-axis) logarithmically indicates the concentration of peptide present. The ordinate (y-axis) indicates the observed PI turnover as a percentage of control. Values are mean ± standard error of triplicate determinations; where not shown, the errors are ≤the size of the data points.
Figure 4 illustrates the ability of (Phe₁₃[CH₂s]Leu₁₄)bombesin to antagonize GRP-induced PI turnover in murine pancreas (Example 2). The abscissa (x-axis) logarithmically indicates the concentration of peptide present. The ordinate (y-axis) indicates the observed PI turnover as a percentage of control. […] Data are the mean ± standard error of triplicate determinations; where not shown, the errors are ≤ the size of the data points.

The mark [3] stands for this setting: Kd (nM), receptor affinity, competition for iodinated GRP binding, murine pancreatic membranes.
The mark [4] stands for this setting: LIGAND analysis, 0.1 nM iodinated GRP, triplicate, murine pancreatic membranes (Figure 2), read-out: Kd.

T1 sequence (P21729 whole entry): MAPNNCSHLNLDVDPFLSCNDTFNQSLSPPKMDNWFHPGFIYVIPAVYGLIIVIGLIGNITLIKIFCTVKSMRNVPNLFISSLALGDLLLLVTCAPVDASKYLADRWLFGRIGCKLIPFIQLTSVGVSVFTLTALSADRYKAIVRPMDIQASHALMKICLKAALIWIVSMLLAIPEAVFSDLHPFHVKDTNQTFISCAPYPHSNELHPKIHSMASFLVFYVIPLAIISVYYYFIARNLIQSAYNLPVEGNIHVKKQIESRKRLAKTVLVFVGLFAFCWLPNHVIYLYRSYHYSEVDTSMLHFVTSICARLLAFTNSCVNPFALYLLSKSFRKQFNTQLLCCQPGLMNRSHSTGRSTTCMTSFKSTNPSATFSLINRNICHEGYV

For the molecule `CC(C)C[C@@H](C(N)=O)[S+]([O-])C[C@H](Cc1ccccc1)NC(=O)[C@H](Cc1c[nH]cn1)NC(=O)CNC(=O)[C@@H](NC(=O)[C@H](C)NC(=O)[C@H](Cc1c[nH]c2ccccc12)NC(=O)[C@H](CCC(N)=O)NC(=O)[C@@H]1CCC(=O)N1)C(C)C` (single isomer, unassigned) [pQ Q W A V G H FΨ[CH₂S(O)]^IIL#], the Kd on bombesin/GRP receptor [1] (setting [3]) came to 1 nM.
With `CC(C)C[C@@H](C(N)=O)[S+]([O-])C[C@H](Cc1ccccc1)NC(=O)[C@H](Cc1c[nH]cn1)NC(=O)CNC(=O)[C@@H](NC(=O)[C@H](C)NC(=O)[C@H](Cc1c[nH]c2ccccc12)NC(=O)[C@H](CCC(N)=O)NC(=O)[C@@H]1CCC(=O)N1)C(C)C` (single isomer, unassigned) [pQ Q W A V G H FΨ[CH₂S(O)]^IL#], at bombesin/GRP receptor [1] (setting [3]), the Kd is 2 nM.
With `CC(C)C[C@H](NC(=O)[C@H](Cc1ccccc1)NC(=O)[C@H](Cc1c[nH]cn1)NC(=O)CNC(=O)[C@@H](NC(=O)[C@H](C)NC(=O)[C@H](Cc1c[nH]c2ccccc12)NC(=O)[C@H](CCC(N)=O)NC(=O)[C@H](CC(N)=O)NC(=O)CNC(=O)[C@H](CC(C)C)NC(=O)[C@H](CCCNC(=N)N)NC(=O)[C@H](CCC(N)=O)NC(=O)[C@@H]1CCC(=O)N1)C(C)C)C(N)=O` [(Phe₁₃Leu₁₄) bombesin, reference compound] ([pGlu]QRLGNQWAVGHFL-NH2), the Kd at bombesin/GRP receptor [1] (setting [4]) stood at 0.1 nM.
For `CC(=O)N[C@H](Cc1ccccc1)C(=O)N[C@@H](CCC(N)=O)C(=O)N[C@@H](Cc1c[nH]c2ccccc12)C(=O)N[C@@H](C)C(=O)N[C@H](C(=O)N[C@H](C)C(=O)N[C@@H](Cc1c[nH]cn1)C(=O)N[C@H](CS[C@@H](CC(C)C)C(N)=O)Cc1ccccc1)C(C)C` [Acf Q W A V a H FΨ[CH₂S]L#, Ac-D-Phe-Gln-Trp-Ala-Val-D-Ala-His-PheΨ[CH₂S]Leu-NH₂] (Ac-[dF]QWAV[dA]H-{Pheψ(CH2S)LeuNH2}), at bombesin/GRP receptor [2], the “PI Turnover Antag.” value was “+” and the “PI Turnover Agonist” value is recorded as “-”.
Turning to `CC(C)C[C@H](NC(=O)[C@H](CCCNC(=N)N)NC(=O)[C@H](CCC(N)=O)NC(=O)[C@@H]1CCC(=O)N1)C(=O)NCC(=O)N[C@@H](CC(N)=O)C(=O)N[C@@H](CCC(N)=O)C(=O)N[C@@H](Cc1c[nH]c2ccccc12)C(=O)N[C@@H](C)C(=O)N[C@H](C(=O)NCC(=O)N[C@@H](Cc1c[nH]cn1)C(=O)N[C@H](CS[C@@H](CC(C)C)C(N)=O)Cc1ccccc1)C(C)C` [pQ Q R L G N Q W A V G H FΨ[CH₂S]L#] ([pGlu]QRLGNQWAVGH-{Pheψ(CH2S)LeuNH2}), on bombesin/GRP receptor [1] (setting [4]), the Kd was found to be 3 nM. Besides, the Kd at bombesin/GRP receptor [1] (receptor affinity, competition for iodinated GRP binding, murine pancreatic membranes, read-out: Kd) is 3 nM. Moreover, the “stimulation of phosphatidylinositol (PI) turnover (agonist activity)” value on bombesin/GRP receptor [2] (PI turnover as percentage of control, dose-response, triplicate (Figure 3)) is recorded as “no agonist activity”. Moreover, on bombesin/GRP receptor [2], the “PI Turnover Antag.” value is reported as “+” and the “PI Turnover Agonist” value is recorded as “-”. Further, the “antagonism of GRP-induced PI turnover” value at bombesin/GRP receptor [2] (preincubation for 30 minutes with 1000 nM peptide, then 1-1000 nM GRP, murine pancreas (Figure 4)) is given as “reduces the stimulation of PI turnover”.
At bombesin/GRP receptor [1] (setting [3]), `CCCC[C@H](SC[C@H](Cc1ccccc1)NC(=O)[C@H](Cc1c[nH]cn1)NC(=O)CNC(=O)[C@@H](NC(=O)[C@H](C)NC(=O)[C@H](Cc1c[nH]c2ccccc12)NC(=O)[C@H](CCC(N)=O)NC(=O)[C@@H]1CCC(=O)N1)C(C)C)C(N)=O` [pQ Q W A V G H FΨ [CH₂S]Z#, pGlu-Gln-Trp-Ala-Val-Gly- His-Phe Ψ(CH₂S]Nle-NH₂] returned a Kd of 4 nM.
Still for that read-out and setting: as for `CC(C)C[C@H](SC[C@H](Cc1ccccc1)NC(=O)[C@H](Cc1c[nH]cn1)NC(=O)CNC(=O)[C@@H](NC(=O)[C@H](C)NC(=O)[C@H](Cc1c[nH]c2ccccc12)NC(=O)[C@H](CCC(N)=O)NC(=O)[C@@H]1CCC(=O)N1)C(C)C)C(N)=O` [pQ Q W A V G H FΨCH₂S]L#], the figure is 3 nM.

One may read the Kd as a measure of binding affinity in units of concentration.

Values taken from patent publication EP0434979B1, “Peptide derivatives useful as antagonists of bombesin and gastrin-releasing peptide” (MERRELL DOW PHARMACEUTICALS INC., priority 1989, dated 1991).
